Tests used:
HiBiT-tagged BCL-xL = molecular target: T1, HiBiT-tagged BCL-xL (Homo sapiens, UniProt Q07817); experiment: NCI-H1650 BCL-xL protein levels, Nano-Glo HiBiT Lytic Detection; type: cell-based; details: NCI-H1650 expressing HiBiT-tagged BCL-xL, overnight incubation, read-out: Bcl-xl HIBIT NCIH1650 DC50
T1 construct: expressed in transfected cells; host or cells: NCI-H1650 (ATCC No. CRL-5883), engineered HiBiT cell line
Procedure: (§1) The ability of the BCL-xL degrader low molecular weight compounds to degrade BCL-xL protein was assessed using the Promega Nano-Glo® HiBiT Lytic Detection System. The NCI-H1650 (ATCC No. CRL-5883) was engineered to express HiBiT-tagged BCL-xL. The NCI-H1650 HiBiT cell line was cultured in media that is optimal for their growth at 5% CO2, 37° C. in a tissue culture incubator. Prior to seeding for the protein level assay, the cells were split at least 2 days before the assay to ensure optimal growth density. On the day of seeding, cells were lifted off tissue culture flasks using 0.25% trypsin. Cell viability and cell density were determined using a cell counter (Vi-Cell XR Cell Viability Analyzer, Beckman Coulter). Cells with higher than 85% viability were seeded in white clear bottom 384-well plates (Greiner cat #781098) at a density of 5000 cells per well in 30 μL of standard growth media. Plates were incubated at 37° C. overnight in a tissue culture incubator.
(§2) The BCL-xL degrader low molecular weight compounds were prepared to desired concentrations. A series of 10 dilutions were made for each prepared compound. The prepared compounds were then added to the cells resulting in final concentrations of 0.508 nM-10 μM. An acoustic transfer device (Echo555, Beckman Coulter) was used to add the compounds to the cells. Each treatment was tested in triplicate assay plates. Plates were incubated at 37° C. overnight in a tissue culture incubator.
BCL-xL degradation was assessed through the addition of 30 μL of Nano-Glo® HiBiT Lytic Reagent (Promega, cat #N3040), a reagent which lyses cells and contains a furimazine substrate and the large subunit (LgBiT) used in NanoLuc® Binary Technology. The LgBiT subunit having high affinity to a HiBiT-tagged protein will bind HiBiT, if present, resulting in complex formation of a luminescent NanoBiT® enzyme. This reaction will emit a luminescent signal proportional to the amount of HiBiT-tagged BCL-xL present in the cell lysate. Plates were incubated at room temperature for 20 minutes to stabilize luminescent signals prior to reading using a luminescence reader (PHERAstar FSX Microplate Reader, BMG Labtech).
To evaluate the effect of the drug treatments, luminescent counts from wells containing untreated cells (100% HiBiT-tagged BCL-xL) were used to normalize treated samples. The concentrations of treatment required to inhibit 50% were calculated using a four parameter logistic regression equation.

[1] = system: EBC-1 lung cancer cell line; experiment: EBC-1 cell proliferation, CellTiter-Glo assay; type: cell-based; details: Homo sapiens, 120 h; Ebc-1 cell viability, CTG assay, 5 days of treatment; read-out: CTG 5 day Ebc1 GI50
Procedure: as §1, with “to inhibit cell proliferation and survival” for “to degrade BCL-xL protein”, “Promega CellTiter-Glo® proliferation assay on the EBC-1 lung cancer” for “Promega Nano-Glo® HiBiT Lytic Detection System. The NCI-H1650 (ATCC No. CRL-5883) was engineered to express HiBiT-tagged BCL-xL. The NCI-H1650 HiBiT”, “line (RCB1965, obtained from RIKEN.) The cells were” for “line was”, “the proliferation” for “the protein level”, “of 1000” for “of 5000”, “in 50” for “in 30”
as §2, with “overnight or for 5 days” for “overnight”, “incubator. The ability of the compounds to inhibit cell proliferation and survival was assessed using the Promega CellTiter-Glo® proliferation assay. Plates were incubated at room temperature for 20 minutes to stabilize luminescent signals prior to reading using a multimode plate reader (PHERAstar FSX Microplate Reader, BMG Labtech).” for “incubator.”
To evaluate the effect of the compound treatments, luminescent counts of untreated cells were taken the day after seeding (Day 0 readings), and after 5 days of treatment (Day 5 readings). The Day 5 readings of the untreated cells were compared to the Day 0 readings. Assays with at least one cell doubling during the incubation period were considered valid. To evaluate the effect of the drug treatments, luminescent counts from wells containing untreated cells (100% viability) were used to normalize treated samples. The concentrations of treatment required to inhibit 50% of cell growth or survival ([…]) were calculated using a four parameter logistic regression equation.

T1 sequence (Q07817 whole entry): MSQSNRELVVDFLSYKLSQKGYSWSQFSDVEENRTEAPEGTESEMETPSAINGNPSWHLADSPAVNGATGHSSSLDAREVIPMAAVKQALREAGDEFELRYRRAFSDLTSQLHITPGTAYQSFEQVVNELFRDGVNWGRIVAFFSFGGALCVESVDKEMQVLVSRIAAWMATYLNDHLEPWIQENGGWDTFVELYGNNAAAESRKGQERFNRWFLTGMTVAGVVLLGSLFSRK

| Structure (SMILES) | DC50 (HiBiT-tagged BCL-xL) [nM] | GI50 [1] [nM] |
| --- | --- | --- |
| Cc1ncsc1-c1ccc([C@H](C)NC(=O)[C@@H]2C[C@@H](O)CN2C(=O)[C@@H](NC(=O)[C@H]2C[C@H](NC(=O)c3nc(N4CCCc5c4nnc(Nc4nc6ccccc6s4)c5C)ccc3-c3cnn(CC45CC6(C)CC(C)(C4)CC(OCCN4CCCC4)(C6)C5)c3C)C2)C(C)(C)C)cc1 [Example 165, 6-(3-(benzo[d]thiazol-2-ylamino)-4-methyl-6,7-dihydropyrido[2,3-c]pyridazin-8(5H)-yl)-3-(1-(((1r,3R,5S,7s)-3,5-dimethyl-7-(2-(pyrrolidin-1-yl)ethoxy)adamantan-1-yl)methyl)-5-methyl-1H-pyrazol-4-yl)-N-((1S,3R)-3-(((S)-1-((2S,4R)-4-hydroxy-2-(((S)-1-(4-(4-methylthiazol-5-yl)phenyl)ethyl)carbamoyl)pyrrolidin-1-yl)-3,3-dimethyl-1-oxobutan-2-yl)carbamoyl)cyclobutyl)picolinamide] | > 1670 | 35 |
| Cc1ncsc1-c1ccc([C@H](C)NC(=O)[C@@H]2C[C@@H](O)CN2C(=O)[C@@H](NC(=O)CCOCCOCCOCCNC(=O)c2nc(N3CCCc4c3nnc(Nc3nc5ccccc5s3)c4C)ccc2-c2cnn(CC34CC5(C)CC(C)(C3)CC(OCCN3CCCC3)(C5)C4)c2C)C(C)(C)C)cc1 [Example 159, 6-(3-(benzo[d]thiazol-2-ylamino)-4-methyl-6,7-dihydropyrido[2,3-c]pyridazin-8(5H)-yl)-3-(1-(((1r,3R,5S,7s)-3,5-dimethyl-7-(2-(pyrrolidin-1-yl)ethoxy)adamantan-1-yl)methyl)-5-methyl-1H-pyrazol-4-yl)-N—((S)-14-((2S,4R)-4-hydroxy-2-(((S)-1-(4-(4-methylthiazol-5-yl)phenyl)ethyl)carbamoyl)pyrrolidine-1-carbonyl)-15,15-dimethyl-12-oxo-3,6,9-trioxa-13-azahexadecyl)picolinamide] | > 1670 | 8 |
| Cc1ncsc1-c1ccc([C@H](C)NC(=O)[C@@H]2C[C@@H](O)CN2C(=O)[C@@H](NC(=O)C[C@H]2CC[C@@H](NC(=O)c3nc(N4CCCc5c4nnc(Nc4nc6ccccc6s4)c5C)ccc3-c3cnn(CC45CC6(C)CC(C)(C4)CC(OCCN4CCCC4)(C6)C5)c3C)CC2)C(C)(C)C)cc1 [Example 163, 6-(3-(benzo[d]thiazol-2-ylamino)-4-methyl-6,7-dihydropyrido[2,3-c]pyridazin-8(5H)-yl)-3-(1-(((1r,3R,5S,7s)-3,5-dimethyl-7-(2-(pyrrolidin-1-yl)ethoxy)adamantan-1-yl)methyl)-5-methyl-1H-pyrazol-4-yl)-N-((1R,4S)-4-(2-(((S)-1-((2S,4R)-4-hydroxy-2-(((S)-1-(4-(4-methylthiazol-5-yl)phenyl)ethyl)carbamoyl)pyrrolidin-1-yl)-3,3-dimethyl-1-oxobutan-2-yl)amino)-2-oxoethyl)cyclohexyl)picolinamide] | 6 | 22 |
| Cc1ncsc1-c1ccc([C@H](C)NC(=O)[C@@H]2C[C@@H](O)CN2C(=O)[C@@H](NC(=O)CCOC2CCN(C(=O)c3nc(N4CCCc5c4nnc(Nc4nc6ccccc6s4)c5C)ccc3-c3cnn(CC45CC6(C)CC(C)(C4)CC(OCCN4CCCC4)(C6)C5)c3C)CC2)C(C)(C)C)cc1 [Example 167, (2S,4R)-1-((S)-2-(3-((1-(6-(3-(benzo[d]thiazol-2-ylamino)-4-methyl-6,7-dihydropyrido[2,3-c]pyridazin-8(5H)-yl)-3-(1-(((1r,3R,5S,7s)-3,5-dimethyl-7-(2-(pyrrolidin-1-yl)ethoxy)adamantan-1-yl)methyl)-5-methyl-1H-pyrazol-4-yl)picolinoyl)piperidin-4-yl)oxy)propanamido)-3,3-dimethylbutanoyl)-4-hydroxy-N—((S)-1-(4-(4-methylthiazol-5-yl)phenyl)ethyl)pyrrolidine-2-carboxamide] | 2 | 136 |

— patent US20240376094A2, “SELECTIVE BCL-XL PROTAC COMPOUNDS AND METHODS OF USE” (Les Laboratoires Servier, priority 2021, published 2024)
